Among the test systems are Malme-3M; HCT-15; MDA-MB-435; HCC 2998; CAKI-1; NCI-H460; SF-295; MOLT-4; SK-MEL-2; COLO 205; UACC-257; NCI-H23; M14; EKVX; SNB-19; 786-0; OVCAR-4; SF-539; SK-OV-3; TK-10.
What all share (assay): NCI-60 cell line screen, 48 h

Results on 11 molecules are retold here after ChEMBL document CHEMBL1201862, “PubChem BioAssay data set” (2004).

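Exposure lasted 48 hours, with cells grown in 96-well plates and compounds tested at five concentrations. Abbreviation: GI50, concentration required for 50% inhibition of growth.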 The source made the active and inactive calls. Rule as the data show it: active = GI50 up to about 1.1 µM and inactive = higher.

With `ClC1=NSSC1(Cl)Cl`, the GI50 in the assay with Malme-3M was 28.6 µM (inactive); with HCT-15, 18.4 µM; in the assay with MDA-MB-435 it was 41.8 µM (inactive); in the assay with HCC 2998, > 100 µM (inactive); in the assay on CAKI-1, 18.5 µM (inactive); in the assay on NCI-H460, 36.9 µM (inactive). Also, the GI50 in the assay on SF-295 was 61.5 µM (inactive); with MOLT-4, 14.8 µM (inactive); in the assay with SK-MEL-2 it was > 100 µM (inactive); in the assay on COLO 205 it was 14.7 µM (inactive); in the assay on UACC-257 it was 51.8 µM (inactive); with NCI-H23, > 100 µM (inactive). Moreover, the GI50 in the assay with M14 is 19.8 µM (inactive); with EKVX, 58.3 µM (inactive); in the assay on SNB-19 it was 90.4 µM (inactive); with 786-0 it was 23.6 µM (inactive); in the assay with OVCAR-4 it was 44.2 µM (inactive); in the assay with SF-539 it was 40.5 µM (inactive).
Turning to `CC(=O)CN/C(C)=N/Nc1ccc([N+](=O)[O-])cc1[N+](=O)[O-]`, the GI50 in the assay on Malme-3M was 70.5 µM (inactive); in the assay on HCT-15, > 100 µM; in the assay with MDA-MB-435, > 100 µM (inactive); in the assay with HCC 2998 it was > 100 µM (inactive); in the assay on CAKI-1, 15.3 µM (inactive); in the assay on NCI-H460, > 100 µM (inactive). The GI50 with SF-295, in the assay on SK-OV-3, in the assay on MOLT-4, in the assay with SK-MEL-2, with COLO 205 and in the assay on NCI-H23 was > 100 µM (inactive) throughout. Besides, the GI50 with M14 is > 100 µM (inactive); in the assay with EKVX, 52.2 µM (inactive); in the assay on SNB-19, > 100 µM (inactive); in the assay with 786-0, > 100 µM (inactive); with OVCAR-4, > 100 µM (inactive); with SF-539, > 100 µM (inactive).
As to `O=Cc1cn(CCCCCCCCCCCCn2cc(C=O)c3ccccc32)c2ccccc12`, the GI50 in the assay on Malme-3M was > 100 µM (inactive); in the assay with HCT-15 it was > 100 µM; with MDA-MB-435, 5.22 µM (inactive); with HCC 2998, > 100 µM (inactive); in the assay on CAKI-1, > 100 µM (inactive); in the assay on NCI-H460, > 10 µM (inactive). In addition, the GI50 with SF-295 is 3.56 µM (inactive); in the assay on SK-OV-3 it was > 100 µM (inactive); in the assay on MOLT-4, > 100 µM (inactive); with SK-MEL-2, > 100 µM (inactive); in the assay on COLO 205, > 100 µM (inactive); with UACC-257 it was 2.47 µM (inactive). Further, the GI50 in the assay on NCI-H23 was 3.53 µM (inactive); with M14 it was > 100 µM (inactive); with EKVX, 7.53 µM (inactive); in the assay on SNB-19, > 100 µM (inactive); in the assay on 786-0, > 100 µM (inactive); with TK-10 it was > 100 µM (inactive). Moreover, in the assay on SF-539, the GI50 was > 100 µM (inactive).
On to `Clc1ccc(-c2cc(-c3cc4cc(Br)ccc4nc3Cl)on2)cc1`, for which the GI50 was 18.8 µM (inactive) with Malme-3M; 16.2 µM in the assay with HCT-15; 11 µM (inactive) in the assay on MDA-MB-435; 10.3 µM (inactive) in the assay on HCC 2998; 10.9 µM (inactive) in the assay with CAKI-1; 10.1 µM (inactive) in the assay with NCI-H460. Besides, the GI50 in the assay on SF-295 is 11.3 µM (inactive); in the assay on SK-OV-3 it was 18.9 µM (inactive); in the assay with MOLT-4, 14.1 µM (inactive); in the assay on SK-MEL-2, 9.71 µM (inactive); with COLO 205, 8.28 µM (inactive); in the assay on UACC-257, 13 µM (inactive). The GI50 is 17.1 µM (inactive) in the assay with NCI-H23; 12.5 µM (inactive) with M14; 4.93 µM (inactive) in the assay on EKVX; 26.7 µM (inactive) with SNB-19; 18.9 µM (inactive) in the assay on 786-0; 16.2 µM (inactive) in the assay with OVCAR-4. Further, the GI50 in the assay with SF-539 is 9.08 µM (inactive).
As to `COC(=O)C1(Cc2ccccc2)Cc2ccccc2C1`, the GI50 in the assay on Malme-3M was 15.5 µM (inactive); in the assay with HCT-15 it was 26.1 µM; in the assay on MDA-MB-435, 19.2 µM (inactive); with HCC 2998, 29.6 µM (inactive); in the assay on CAKI-1 it was 18.5 µM (inactive); in the assay with NCI-H460 it was 25.5 µM (inactive). Also, the GI50 in the assay on SF-295 was 36.5 µM (inactive); in the assay on SK-OV-3, 39.6 µM (inactive); in the assay with MOLT-4, 14.8 µM (inactive); with SK-MEL-2, 11.5 µM (inactive); with COLO 205, 19.1 µM (inactive); in the assay with UACC-257, 24.4 µM (inactive). Also, the GI50 in the assay with NCI-H23 was 23.2 µM (inactive); with M14, 17.1 µM (inactive); with EKVX it was 9.84 µM (inactive); in the assay with 786-0, 22.7 µM (inactive); with TK-10, 21.2 µM (inactive); with OVCAR-4, 22.4 µM (inactive). The GI50 with SF-539 is 50.9 µM (inactive).
For the molecule `CCOc1nc(-c2ccccc2)cc(-c2ccc(N3CCOCC3)cc2)c1C#N`, the GI50 was > 100 µM (inactive) in the assay on Malme-3M; > 100 µM in the assay with HCT-15; > 100 µM (inactive) in the assay with MDA-MB-435; > 100 µM (inactive) in the assay with HCC 2998; > 100 µM (inactive) in the assay with CAKI-1; > 100 µM (inactive) with NCI-H460. Besides, the GI50 with SF-295 was 7.35 µM (inactive); in the assay with MOLT-4 it was > 100 µM (inactive); in the assay with SK-MEL-2, > 100 µM (inactive); in the assay with COLO 205 it was > 100 µM (inactive); with UACC-257, 19.1 µM (inactive); with NCI-H23, > 100 µM (inactive). Moreover, the GI50 with M14, in the assay with EKVX, with SNB-19, in the assay with 786-0, with TK-10 and with OVCAR-4 was > 100 µM (inactive) throughout. Also, the GI50 in the assay on SF-539 was > 100 µM (inactive).
Turning to `C/C(=N\Nc1nc2ccccc2n1C)c1cc2ccccc2cn1`, the GI50 with Malme-3M is < 0.01 µM (active); in the assay on HCT-15, < 0.01 µM; in the assay with MDA-MB-435, 0.295 µM (active); with HCC 2998, 11.6 µM (inactive); with CAKI-1, < 0.01 µM (active); in the assay on NCI-H460, 0.0653 µM (active). For the same molecule, the GI50 was 0.144 µM (active) with SF-295; 0.0339 µM (active) in the assay with SK-OV-3; < 0.01 µM (active) in the assay with MOLT-4; 0.805 µM (active) in the assay on SK-MEL-2; < 0.01 µM (active) in the assay with COLO 205; < 0.0105 µM (active) with UACC-257. For the same molecule, the GI50 in the assay with NCI-H23 is < 0.0172 µM (active); in the assay on M14, < 0.0335 µM (active); with EKVX, < 0.0111 µM (active); with SNB-19 it was 0.352 µM (active); with 786-0 it was < 0.0173 µM (active); with OVCAR-4 it was 0.0423 µM (active). For the same molecule, the GI50 in the assay on SF-539 was 0.441 µM (active).
For `CCc1cccc(C(C)C)c1NC(=O)C(=O)Nn1c(S)nc2ccccc2c1=O`, the GI50 in the assay on Malme-3M was > 100 µM (inactive); in the assay on HCT-15, > 100 µM; in the assay on MDA-MB-435, > 100 µM (inactive); with HCC 2998, > 100 µM (inactive); with CAKI-1, > 100 µM (inactive); in the assay with NCI-H460, > 100 µM (inactive). Also, the GI50 with SF-295, in the assay with SK-OV-3, with MOLT-4, with SK-MEL-2, in the assay with UACC-257 and in the assay with NCI-H23 was > 100 µM (inactive) in each case. Moreover, the GI50 in the assay on M14 is > 100 µM (inactive); in the assay on EKVX, 37.8 µM (inactive); with 786-0, > 100 µM (inactive); with TK-10, > 100 µM (inactive); in the assay on OVCAR-4, > 100 µM (inactive); in the assay on SF-539, > 100 µM (inactive).
As for `O=C(O)COCC(=O)N(CCOCCN(Cc1ccccc1)C(=O)COCC(=O)O)Cc1ccccc1`, the GI50 in the assay on Malme-3M is > 100 µM (inactive); in the assay with HCT-15, > 100 µM; in the assay with MDA-MB-435, > 100 µM (inactive); in the assay on HCC 2998, > 100 µM (inactive); in the assay with CAKI-1, > 100 µM (inactive); in the assay with NCI-H460 it was > 100 µM (inactive). For the same molecule, the GI50 with SF-295, in the assay with SK-OV-3, in the assay with MOLT-4, with SK-MEL-2, in the assay with COLO 205 and with UACC-257 was > 100 µM (inactive) throughout. The GI50 in the assay on NCI-H23, in the assay on M14, in the assay on EKVX, in the assay with SNB-19, with 786-0 and in the assay on TK-10 was > 100 µM (inactive) in each case. Also, the GI50 in the assay with SF-539 was > 100 µM (inactive).
Take `CCCCCCNC(=O)c1cc(CCc2cc(O)ccc2O)ccc1O`: the GI50 in the assay on Malme-3M was 2.35 µM (inactive); in the assay with HCT-15, 2.48 µM; in the assay with MDA-MB-435, 3.61 µM (inactive); in the assay on HCC 2998 it was 3.15 µM (inactive); with CAKI-1, 3.32 µM (inactive); in the assay on NCI-H460, 8.57 µM (inactive). In addition, the GI50 in the assay on SF-295 was 14.1 µM (inactive); in the assay with SK-OV-3, 9.95 µM (inactive); with MOLT-4, 1.93 µM (inactive); with SK-MEL-2, 2.74 µM (inactive); with COLO 205 it was 10.9 µM (inactive); with UACC-257, 2.2 µM (inactive). Moreover, the GI50 with NCI-H23 is 7.89 µM (inactive); in the assay on M14, 6.05 µM (inactive); with EKVX, 5.75 µM (inactive); in the assay on SNB-19 it was 10.7 µM (inactive); with 786-0, 2.04 µM (inactive); in the assay on TK-10, 2.96 µM (inactive). Moreover, the GI50 in the assay with OVCAR-4 is 2.47 µM (inactive).
Consider `NS(=O)(=O)c1cc2c(cc1Cl)NCNS2(=O)=O` [HYDROCHLOROTHIAZIDE], for which the GI50 with Malme-3M was > 100 µM (inactive); with HCT-15, > 100 µM; in the assay on MDA-MB-435, > 100 µM (inactive); in the assay with HCC 2998, > 100 µM (inactive); with CAKI-1, > 100 µM (inactive); in the assay on NCI-H460, > 100 µM (inactive). Besides, the GI50 in the assay with SF-295, in the assay on MOLT-4, in the assay with SK-MEL-2, in the assay on COLO 205, in the assay with UACC-257 and in the assay on NCI-H23 was > 100 µM (inactive) throughout. For the same molecule, the GI50 in the assay on M14, with EKVX, in the assay on SNB-19, in the assay on 786-0, with TK-10 and with OVCAR-4 was > 100 µM (inactive) each time. Also, the GI50 with SF-539 was > 100 µM (inactive).
